Each structure is given as a SMILES string. Values joined by “and” are separate entries in the source; they are usually repeats but may differ in a detail not shown here. Identical values can stand only once.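 Method: 48-hour compound exposure of cells in 96-well plates, five concentrations, linear interpolation of endpoints. The concentration for 50% growth inhibition is given as GI50. TGI: total growth inhibition.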

Among the test systems are 786-0 renal; HCC-2998 colon; HS 578T breast; LOX IMVI melanoma; NCI-H460 lung; SNB-19 CNS; SR leukemia; SW-620 colon; U251 CNS; UACC-62 melanoma.
Test in all cases: NCI anticancer screen, dose series, 48 h

Take `Cc1ccc2nc(CC(=O)c3ccc4ccccc4c3)c(=O)[nH]c2c1`: the TGI in the assay with 786-0 renal, in the assay with HCC-2998 colon, with HS 578T breast, in the assay with LOX IMVI melanoma, with NCI-H460 lung and with SNB-19 CNS was > 100 µM throughout. Moreover, the TGI in the assay with SR leukemia, with SW-620 colon, in the assay on U251 CNS and with UACC-62 melanoma was > 100 µM each time.
With `C/C=C(\C)C(=O)OC1C2C(C)C(=O)OC2C(O)C(C)C2C=CC(=O)C21C` (stereo not given), the TGI is 30.3 µM in the assay with 786-0 renal; 29.8 µM in the assay with HCC-2998 colon; > 64.7 µM in the assay on HS 578T breast; 28.5 µM with LOX IMVI melanoma; 20.6 µM in the assay with NCI-H460 lung; 26.3 µM in the assay on SNB-19 CNS. The TGI in the assay on SR leukemia turned out to be 18.3 µM; in the assay with SW-620 colon, 28.7 µM; in the assay on U251 CNS, 24.6 µM; with UACC-62 melanoma, 26.1 µM.
Consider `Nc1nc(Cl)nc2c1ncn2C1CCC(COP(=O)(O)OP(=O)(O)OP(=O)(O)O)O1` (stereo not given), for which the TGI was > 100 µM in the assay on 786-0 renal; 86.1 µM in the assay on HCC-2998 colon; > 100 µM with HS 578T breast; 78.5 µM in the assay on LOX IMVI melanoma; > 100 µM with NCI-H460 lung; > 100 µM with SNB-19 CNS. In addition, the TGI in the assay with SR leukemia was > 100 µM; in the assay on SW-620 colon, > 100 µM; with U251 CNS, > 100 µM; with UACC-62 melanoma, 47.9 µM.
For the compound `C=C(CN(C)C)C(=O)c1ccc(OC)cc1`, the TGI with 786-0 renal is 5.78 µM; in the assay with HCC-2998 colon, 22.4 µM; in the assay on HS 578T breast it was > 87 µM; with LOX IMVI melanoma, 25.4 µM; in the assay on NCI-H460 lung, 44.6 µM; with SNB-19 CNS, 40.3 µM. For the same compound, the TGI in the assay with SR leukemia was 5.27 µM; with SW-620 colon, 5.08 µM; in the assay on U251 CNS, 28.8 µM; in the assay on UACC-62 melanoma, 20.4 µM.
Take `O=C(Nc1cccc(-n2cc(-c3ccncc3)c(-c3ccc(O)c(Cl)c3)n2)c1)c1ccc(N2CCOCC2)c(C(F)(F)F)c1`: the GI50 in the assay on 786-0 renal is 0.982 µM; in the assay on HCC-2998 colon, 3.44 µM; in the assay on HS 578T breast, 0.548 µM; with LOX IMVI melanoma it was 1.61 µM; in the assay on NCI-H460 lung, 1.82 µM; in the assay on SNB-19 CNS it was > 50 µM. Besides, the GI50 was 1.05 µM in the assay with SR leukemia, 4.05 µM with SW-620 colon, 0.917 µM with U251 CNS and > 50 µM in the assay with UACC-62 melanoma. Besides, the TGI in the assay with 786-0 renal, with HCC-2998 colon, in the assay on HS 578T breast, in the assay on LOX IMVI melanoma, with NCI-H460 lung and in the assay on SNB-19 CNS was > 50 µM each time. Also, the TGI in the assay on SR leukemia, with SW-620 colon, in the assay with U251 CNS and in the assay with UACC-62 melanoma was > 50 µM each time.
With `Cc1cc(O)c(O)c(Oc2cc(C)cc(O)c2O)c1`, the TGI is 55.5 µM in the assay with 786-0 renal; > 100 µM with HCC-2998 colon; > 100 µM in the assay with HS 578T breast; 24.6 µM in the assay on LOX IMVI melanoma; 26.6 µM in the assay with NCI-H460 lung; > 100 µM in the assay with SNB-19 CNS. Besides, the TGI in the assay with SR leukemia was 43.5 µM; in the assay on SW-620 colon it was > 100 µM; in the assay with U251 CNS, > 100 µM; in the assay with UACC-62 melanoma, 56.8 µM.
Consider `Cc1cccc2c1NC(=O)C2(c1ccc(O)cc1)c1ccc(O)cc1`, for which the GI50 in the assay with 786-0 renal was 17.9 µM; with HCC-2998 colon, 0.0706 µM; in the assay with HS 578T breast, < 0.01 µM; in the assay with LOX IMVI melanoma, 6.76 µM; in the assay on NCI-H460 lung, 18.5 µM; in the assay on SNB-19 CNS, 28.5 µM. Besides, the GI50 in the assay on SR leukemia is 14 µM; in the assay on SW-620 colon it was 20.8 µM; in the assay with U251 CNS it was 18.9 µM; in the assay with UACC-62 melanoma, 11.4 µM. Moreover, the TGI in the assay on 786-0 renal was 40.1 µM; in the assay with HCC-2998 colon, 24.6 µM; with HS 578T breast it was < 0.0192 µM; with LOX IMVI melanoma, 25.6 µM; in the assay on NCI-H460 lung it was 40.8 µM; with SNB-19 CNS, > 100 µM. Moreover, the TGI with SR leukemia turned out to be 45.4 µM; in the assay on SW-620 colon, 69.8 µM; in the assay on U251 CNS it was 48.9 µM; with UACC-62 melanoma, 35.1 µM.
In the case of `COc1cccc2cc(-c3nc(C4CCC(C(=O)O)CC4)n4ncnc(N)c34)[nH]c12` (stereo not given), the GI50 in the assay on 786-0 renal was 0.344 µM and 0.488 µM; in the assay on HCC-2998 colon it was 0.451 µM and 0.729 µM; with HS 578T breast, 0.135 µM and 0.11 µM; with LOX IMVI melanoma, 0.368 µM and 0.825 µM; in the assay with NCI-H460 lung, 0.253 µM and 0.445 µM; in the assay with SNB-19 CNS, 1.34 µM and 1.49 µM. For the same compound, the GI50 is 0.295 µM and 0.31 µM in the assay on SR leukemia; 1.23 µM and 1.49 µM with SW-620 colon; 0.666 µM and 1.26 µM in the assay on U251 CNS; 0.18 µM and 0.188 µM in the assay on UACC-62 melanoma. Moreover, the TGI in the assay with 786-0 renal was 6.57 µM and 5.44 µM; with HCC-2998 colon, 35.3 µM and > 10 µM; with HS 578T breast it was 0.627 µM and 0.979 µM; in the assay on LOX IMVI melanoma, 4.85 µM and > 10 µM; in the assay with NCI-H460 lung it was 17.7 µM and > 10 µM; with SNB-19 CNS it was > 100 µM. Besides, the TGI was > 36.3 µM with SR leukemia; > 100 µM in the assay on SW-620 colon; > 100 µM with U251 CNS; 1.51 µM and 1.83 µM with UACC-62 melanoma.
